Assay results taken from the supplement of paper PMC10307832.

Assays:
Test in all cases: relative viability (nuclei count vs DMSO), 5 days (fraction); higher = more cells survive
BI-D1870 + OSI-027 = compound: CC(C)CCN1c2nc(Nc3cc(F)c(O)c(F)c3)ncc2N(C)C(=O)C1C [BI-D1870] + COc1cccc2cc(-c3nc([C@H]4CC[C@H](C(=O)O)CC4)n4ncnc(N)c34)[nH]c12 [OSI-027] (partner 0.5 µM)
Procedure, shortened: (§1)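 Relative viability equals treated-well nuclei counts divided by vehicle-well nuclei counts. Counts came from 4× images of lung cancer cell lines grown in 1536-well plates for 5 days after pin-tool dosing on the day after seeding. Dosing used one drug alone or a fixed anchor-drug dose plus five library-drug doses (not always all listed) in √10 steps, and values are medians of duplicate plates.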

BI-D1870 + Crizotinib = compound: CC(C)CCN1c2nc(Nc3cc(F)c(O)c(F)c3)ncc2N(C)C(=O)C1C [BI-D1870] + C[C@@H](Oc1cc(-c2cnn(C3CCNCC3)c2)cnc1N)c1c(Cl)ccc(F)c1Cl [Crizotinib] (partner 1 µM)
Procedure, shortened: as §1

BI-D1870 + Decitabine = compound: CC(C)CCN1c2nc(Nc3cc(F)c(O)c(F)c3)ncc2N(C)C(=O)C1C [BI-D1870] + Nc1ncn([C@H]2C[C@H](O)[C@@H](CO)O2)c(=O)n1 [Decitabine] (partner 2 µM)
Procedure, shortened: as §1

Zebularine + OSI-027 = compound: O=c1ncccn1[C@@H]1O[C@H](CO)[C@@H](O)[C@H]1O [Zebularine] + COc1cccc2cc(-c3nc([C@H]4CC[C@H](C(=O)O)CC4)n4ncnc(N)c34)[nH]c12 [OSI-027] (partner 0.5 µM)
Procedure, shortened: as §1

Cell Line	relative viability (BI-D1870 + OSI-027; first compound 0.04 µM)	relative viability (BI-D1870 + OSI-027; first compound 0.1265 µM)	relative viability (BI-D1870 + OSI-027; first compound 0.4 µM)	relative viability (BI-D1870 + OSI-027; first compound 1.265 µM)	relative viability (BI-D1870 + OSI-027; first compound 4 µM)	relative viability (BI-D1870 + Crizotinib; first compound 0.04 µM)	relative viability (BI-D1870 + Crizotinib; first compound 0.1265 µM)	relative viability (BI-D1870 + Crizotinib; first compound 0.4 µM)	relative viability (BI-D1870 + Crizotinib; first compound 1.265 µM)	relative viability (BI-D1870 + Crizotinib; first compound 4 µM)	relative viability (BI-D1870 + Decitabine; first compound 0.04 µM)	relative viability (BI-D1870 + Decitabine; first compound 0.1265 µM)	relative viability (BI-D1870 + Decitabine; first compound 0.4 µM)	relative viability (BI-D1870 + Decitabine; first compound 1.265 µM)	relative viability (BI-D1870 + Decitabine; first compound 4 µM)	relative viability (Zebularine + OSI-027; first compound 1 µM)	relative viability (Zebularine + OSI-027; first compound 3.162 µM)	relative viability (Zebularine + OSI-027; first compound 10 µM)	relative viability (Zebularine + OSI-027; first compound 31.62 µM)	relative viability (Zebularine + OSI-027; first compound 100 µM)
NCI-H3122	1.08	0.876	0.932	1.07	0.619	0.283	0.275	0.293	0.28	0.325	0.51	0.333	0.478	0.427	0.508	1.24	1.03	0.603	1.03	0.755
COR-L23	0.883	0.722	0.707	0.823	0.577	0.703	0.639	0.692	0.72	0.544	0.445	0.402	0.508	0.526	0.405	1.07	0.794	0.383	0.452	0.236
NCI-H2087	0.733	0.516	0.58	0.638	0.392	0.918	0.914	1	1.11	0.739	0.259	0.28	0.307	0.342	0.38	0.379	0.457	0.286	0.508	0.27
LC-2-ad	0.93	0.861	0.824	0.867	0.802	0.51	0.454	0.394	0.544	0.434	0.834	0.72	0.842	0.893	0.791	0.858	0.559	0.546	0.573	0.529
NCI-H1915	0.665	0.516	0.591	0.476	0.411	0.932	0.835	0.962	0.935	0.881	0.267	0.247	0.285	0.234	0.271	0.672	0.548		0.622	0.486
NCI-H2023	0.456	0.298	0.323	0.319	0.223	0.724	0.525	0.579	0.612	0.497	0.204	0.188	0.232	0.248	0.281	0.471	0.437	0.314	0.457	0.302
COR-L 105	0.769	0.682	0.619	0.808	0.754	0.858	0.79	0.777	0.754	0.574	0.668	0.516	0.668	0.733	0.656	0.763	0.642	0.566	0.697	0.684
RERF-LC-KJ	0.595	0.478	0.558	0.628	0.389	0.892	0.853	0.847	0.857	0.792	0.661	0.671	0.675	0.745	0.519	0.715	0.523	0.51	0.548	0.575
LXF-289	0.796	0.74	0.746	0.807	0.776	0.905	0.796	0.797	0.793	0.619	0.35	0.382	0.372	0.411	0.416	0.827	0.69	0.626	0.564	0.329
PC-14	0.995	0.626	0.747	0.773	0.605	1.03	0.909	0.797	0.923	0.768	0.203	0.148	0.278	0.198	0.223	0.778	0.437	0.146	0.121	0.0877
NCI-H650	0.538	0.427	0.509	0.471	0.446	0.672	0.667	0.695	0.662	0.405	0.336	0.339	0.331	0.314	0.286	0.54	0.524	0.437	0.356	0.26
NCI-H1666	0.943	0.808	0.849	0.89	0.807	0.932	0.813	1.1	1.04	0.803	0.711	0.701	0.716	0.732	0.677	0.721	0.785	0.634	0.947	0.979
NCI-H2085	0.745	0.6	0.674	0.602	0.337	0.861	0.561	0.819	0.724	0.772	0.541	0.556	0.643	0.519	0.557	0.737	0.537	0.602	0.769	0.516
NCI-H1734	0.569	0.541	0.567	0.629	0.472	0.806	0.618	0.593	0.664	0.645	0.482	0.448	0.531	0.559	0.525	0.672	0.556	0.488	0.425	0.317
NCI-H2126	0.74	0.64	0.671	0.716	0.58	1.09	1.07	0.994	1.04	1.01	0.576	0.549	0.585	0.606	0.556	0.721	0.718	0.619	0.8	0.602
EMC-BAC-2	0.46	0.37	0.351	0.422	0.334	0.847	0.739	0.726	0.853	0.835	1.02	0.985	1.01	1.27	1.02	0.406	0.366	0.341	0.387	0.368
